Reference: PMC9304929, “The Cholesterol-Binding Sequence in Monomeric C-Reactive Protein Binds to the SARS-CoV-2 Spike Receptor-Binding Domain and Blocks Interaction With Angiotensin-Converting Enzyme 2” (Frontiers in Immunology, 2022)

Experiments:
[1] = test system: SARS-CoV-2 spike RBD; assay: Surface plasmon resonance (SPR) binding assay, spike RBD on CM5 chip
Experimental: (§1) Surface plasmon resonance (SPR) binding assays were performed using Biacore 8K instrument (Cytiva Life Sciences, Marlborough, MA, USA) in HEPES buffer containing 50 mM HEPES (pH 7.4), 150 mM NaCl, and 0.05% Tween-20 at 25°C. Spike-RBD was diluted to a concentration of 20 μg/mL with 10 mM sodium acetate (pH 5.0) and immobilized on a CM5 sensor chip (Cytiva Life Sciences, Marlborough, MA, USA). The mCRP samples were passed over the sensor chip at a flow rate of 30 μL/min with a concentration gradient from 3.125 nM to 100 nM. The association time was 180 s. A dissociation process was performed for 200 s at a flow rate of 30 μL/min. The dissociation constant (Kd) values were calculated by fitting result curves (subtracted from the control flow value) to a 1:1 Langmuir binding model with Biacore 8K evaluation software.

[2] = test system: binding of mCRP to the spike RBD; assay: Peptide competition assay (ELISA) of mCRP binding to spike RBD; design: species or system SARS-CoV-2; conditions: spike RBD-coated wells (2 μg/mL), mCRP at half-saturation concentration with synthetic peptide, mAb 3H12, n = 3
[3] = target: SARS-CoV-2 spike RBD; assay: Spike RBD-mCRP binding ELISA; conditions: for Kd: ELISA, spike RBD-immobilized microtiter wells, detection with mCRP-specific mAb 3H12, n = 3, mean ± S.E.M.
Experimental: The interactions of the spike-RBD with mCRP or CRP were also examined by enzyme-linked immunosorbent assay (ELISA) using mCRP/CRP-specific mAbs. Briefly, 100 μL of spike-RBD (1μg/mL) in Tris-buffered saline (TBS; 10 mM Tris, 140 mM NaCl, pH 7.4) was added per well to coat in 96-well microplates overnight at 4°C. The wells were then washed three times with TBS containing 0.02% Tween-20 for 5 min and blocked with 1% bovine serum albumin (BSA) in TBS for 1 h at 37°C. Next, mCRP was added and the plates were incubated for 1 h at 37°C. The color was developed by adding tetramethyl benzidine (TMB) to the wells and the color development was stopped with 1 M H2SO4.

[4] = test system: binding of the spike RBD to ACE2; assay: SPR competition of spike RBD binding to ACE2; design: species or system human; conditions: fixed spike RBD concentration, different concentrations of mCRP
Experimental: as §1
Having confirmed that mCRP can bind to the spike RBD, we further questioned whether mCRP can compete for the binding of the spike RBD to ACE2. […] First, in the spike RBD binding assay with ACE2, the spike RBD concentration was fixed and different concentrations of mCRP were added to test whether mCRP could inhibit the binding of the spike RBD to ACE2.

[5] = cited from earlier work
[6] = test system: spike RBD binding to cell surface ACE2 (A549 ACE2+/+ cells); assay: Inhibition assay of spike-ACE2 interaction in cells (flow cytometry); assay type: cell-based, human; conditions: spike RBD 140 nM with ACE2+/+ cells, compound 4°C 30 min, n = 3
[7] = test system: immortalized bone marrow-derived macrophages (iBMDM); assay: Cytokine release from macrophages stimulated with CBS; assay type: cell-based; conditions: iBMDM stimulated with different concentrations of CBS, LPS positive control, n = 3
Experimental: To compare the inhibitory ability of the CBS peptide, different concentrations of the CBS peptide were added to the cell medium and incubated at 4°C for 30 min. After washing, the mixture was incubated for another 30 min with anti-Flag antibody, followed by incubation with a secondary antibody conjugated to Alexa Fluor 488. The inhibitory activity of the CBS peptide and positive control (lomefloxacin) was compared using flow cytometry with Alexa Fluor 488-conjugated spike RBD and phycoerythrin (PE)-conjugated ACE2. […] At the same time, we stimulated macrophages with the CBS peptide and detected the release of pro-inflammatory cytokines TNF-α and IL-6 to verify whether the CBS peptide itself is immunogenic.

[8] = test system: binding of the spike RBD to mCRP; design: species or system SARS-CoV-2
[9] = test system: SARS-CoV-2 pseudovirus; conditions: 50 μM, preliminary results, data not shown

**Q.** Which “binding of spike RBD to ACE2 (SPR)” value ([1]; check of biological activity of the spike RBD protein) does the source give for ACE2 here?
**A.** The value was “high affinity”.

**Q.** For amino acids 35−42 (VCLHFYTE), which “inhibition of the binding of mCRP to the spike RBD (peptide competition assay)” value (from here on “inhibition of the binding of mCRP”) [2] is on record?
**A.** Its value is “still inhibited”.

**Q.** With u-mCRP as the compound, how does the Kd [3] read?
**A.** Its Kd is 44.9 ± 6.27 nM.

**Q.** Which results are given for mCRP?
**A.** inhibition of the binding of the spike RBD to ACE2 (SPR) [4]: significantly inhibited; half-life of blood-borne mCRP [5]: rather short; binding to the spike RBD (SPR) ([1]; analyte 3.125-100 nM in fluid phase, spike RBD on CM5 chip, HEPES pH 7.4, 25°C): high affinity

**Q.** For `CCn1cc(C(=O)O)c(=O)c2cc(F)c(N3CCNC(C)C3)c(F)c21` (stereo not shown) [lomefloxacin, Lomefloxacin, reference compound], which “inhibition of the binding of the spike RBD to the cell surface ACE2” value [6] is on record?
**A.** Its value is “almost completely inhibited”.

**Q.** Which “binding to the spike RBD (ELISA)” value ([3]; spike RBD-immobilized wells, detection with pCRP-specific mAb 8D8, n = 3) does the source give for pCRP here?
**A.** Its value is “did not bind”.

**Q.** With r-mCRP as the compound, how does the Kd [3] read?
**A.** Its Kd is 24.4 ± 6.48 nM.

**Q.** Which “inhibition of the binding of mCRP” value [2] does the source give for “amino acids 41−47 (TELSSTR; UniProt P02741 59-65, looked up, fragment)” here?
**A.** Its value is “lost the ability to inhibit”.

**Q.** Which “inhibition of the binding of mCRP” value [2] does the source give for amino acids 39−47 (FYTELSSTR) here?
**A.** Its value is “lost the ability to inhibit”.

**Q.** With CBS (VCLHFYTELSSTR) as the compound, how does the “inhibition of the binding of the spike RBD to the cell surface ACE2” value [6] read?
**A.** Its value is “inhibit the binding of the spike RBD to the cell surface ACE2 in a concentration-dependent manner”.

**Q.** What about the “release of pro-inflammatory cytokines TNF-α and IL-6” value [7] of the same compound?
**A.** The value was “did not induce the release of cytokines”.

**Q.** And the “inhibition of the binding of mCRP” value [2]?
**A.** The value was “competitively inhibited”.

**Q.** And the “inhibition of the binding of the spike RBD to mCRP (SPR)” value [8]?
**A.** The value was “almost completely inhibited”.

**Q.** And the “inhibition of the invasion of SARS-CoV-2 pseudovirus into Caco-2 cells” value [9]?
**A.** Its value is “partially inhibit”.
